From PMC12631982, “Expected and Unexpected “Guests” at the Active Site of Human Orotidine 5′-Monophosphate Decarboxylase” (Biochemistry, 2025)
Several values for one entry are separate records, joined by “and”; a condition that tells them apart may be missing. Equal values may be shown once. Entries after “also recorded” stand apart in the source; their conditions may differ. Read-outs that look alike come from different tables or passages of the source. One block for each compound: values may come before it.

What was measured:
human OMPDC [1] = target: T1, human OMPDC (Homo sapiens, UniProt P11172); assay: X-ray crystallography, soaking / cocrystallization of ligands; details: wild-type, in crystallo
T1 construct: Overexpression of human OMPDC in Escherichia coli; made in house; host or cells: Escherichia coli
Protocol: OMPDC crystals were grown for at least 3 days at 20 °C using the hanging drop diffusion method with Crystalgen SuperClear Plates (Jena Bioscience) as previously described. , The crystals were gradually transferred to increasing concentrations of cryo-solution (100 mM Tris/HCl pH 8.0, 2 M (NH4)2SO4, 10 mM glutathione pH 8.0, 0.25–1 M L-proline). After the crystals were adjusted to 1 M L-proline cryo-solution, various ligands were used for soaking experiments. […] The crystals were flash-cooled in liquid nitrogen and stored at these temperatures until the diffraction experiments were conducted.
OMPDC was also cocrystallized with XMP, UMP, and GMP. For this, a final protein concentration of 4.5 mg/mL and 25 mM ligand were used in 20 mM HEPES/NaOH, pH 7.4. The solution was mixed in a 1 + 1 ratio with the reservoir solution. Plates were stored at 20 °C, and crystals grew overnight. After 1 week, crystals were transferred to cryo-solution supplemented with 25 mM XMP/UMP/GMP. The cocrystallized crystals were flash-cooled in liquid nitrogen and stored until use.
The structures of OMPDC with the different ligands were determined by processing the diffraction data with the XDS program suite. […]

human OMPDC [2] = target: T1, human OMPDC; assay: ITC-based steady-state kinetics / activity assay of OMPDC; assay type: biochemical; details: wild-type
Protocol: (§1) Steady-state kinetics of OMPDC conversion and thermodynamics of ligand binding were conducted using a PEAK-ITC instrument (Malvern Panalytical) in 20 mM HEPES/NaOH, pH 7.4, at 25 °C. The substrate OMP trisodium salt and the ligands UMP, GMP, XMP, and TMP were purchased from Sigma-Aldrich (purity >99%).
(§2) For steady-state kinetic analysis, 20 μM OMPDC and 1 mM OMP were used at a cell temperature of 25 °C. The reference power was set to 8 μcal/s, the stirring power to 750 rpm, and two injections of 10 μL each were performed. For competitive inhibition studies, the substrate concentration remained the same while the ligand concentration was varied. The experiments are summarized below:
OMPDC with OMP and 5-methyl OMP: 70/100 μM OMPDC, 1 mM OMP, 5-methyl OMP (1 mM), buffer (HEPES 0.02 M, pH 7.4), reference power ITC 8 μcal/s, stirring speed 750 rpm, cell temperature 25 °C, 2 injections of 10 μL each.
OMPDC with OMP: 20 μM OMPDC, 1 mM OMP, buffer (HEPES 0.02 M, pH 7.4), reference power ITC 8 μcal/s, stirring speed 750 rpm, cell temperature 25 °C, 2 injections of 10 μL each.
The data sets were evaluated via Microsoft Excel, and the decarboxylation rates were fitted in OriginPro 2020 according to the Hill equation.

OMPDC Thr321Asn [3] = target: T2, OMPDC Thr321Asn (Homo sapiens, UniProt P11172, T321N); assay: Kinetic ITC with OMPDC variant Thr321Asn; assay type: biochemical
T2 construct: OMPDC Thr321Asn was generated via site-directed mutagenesis; made in house
Protocol: as §2, with “varied.” for “varied. The experiments are summarized below:”

human OMPDC [4] = target: T1, human OMPDC; assay: Thermodynamic ITC ligand binding to human OMPDC wild-type; details: for binding detected by thermodynamic ITC: 25 °C; for ΔH (first binding phase, K D1) / ΔH (second binding phase, K D2): Sedphat analysis
Protocol: as §1
Isothermal titration calorimetry (ITC) is used to determine the dissociation constant (K D) of a protein–ligand interaction by measuring the heat released or absorbed during binding. In practice, the ligand is sequentially titrated into a solution containing the protein in the reaction cell. As the binding sites become saturated over time, no additional heat changes are detected. The resulting thermogram is then converted into a binding isotherm, which can be used to calculate all relevant thermodynamic parameters. Thereby, the (K D) follows the general reaction, where the enzyme (E), by addition of a ligand (L), forms an enzyme-ligand complex (EL) E+L↔KaEL
The following parameters for the binding experiments were used:
OMPDC with UMP: 195 μM OMPDC, 2.08 mM UMP, buffer (HEPES 0.02 M, pH 7.4), reference power ITC 8 μcal/s, stirring speed 750 rpm, cell temperature 25 °C, one injection of 0.4 μL and 18 injections of 2 μL UMP, 120 s spacing.*
OMPDC with 5-methyl OMP: 195 μM OMPDC, 4.61 mM 5-methyl OMP, buffer (HEPES 0.02 M, pH 7.4), reference power ITC 10 μcal/s, stirring speed 750 rpm, cell temperature 25 °C, 1 injection of 0.4 μL and 18 injections of 2 μL 5-methyl OMP, 120 s spacing.*
OMPDC with dTMP: 186 μM OMPDC, 5 mM dTMP, buffer (HEPES 0.02 M, pH 7.4), reference power ITC 8 μcal/s, stirring speed 750 rpm, cell temperature 25 °C, 1 injection of 0.4 μL and 18 injections of 2 μL dTMP, 120 s spacing.
OMPDC with XMP: 194 μM OMPDC, 1.5 mM XMP, buffer (HEPES 0.02 M, pH 7.4), reference power ITC 8 μcal/s, stirring speed 750 rpm, cell temperature 25 °C, 1 injection of 0.4 μL and 18 injections of 2 μL XMP 120 s spacing.*
OMPDC with YMP: 200 μM OMPDC, 2.03 mM YMP, buffer (HEPES 0.02 M, pH 7.4), reference power ITC 8 μcal/s, stirring speed 750 rpm, cell temperature 25 °C, 1 injection of 0.4 μL and 18 injections of 2 μL YMP, 120 s spacing.
OMPDC with CMP: 200 μM OMPDC, 1.80 mM CMP, buffer (HEPES 0.02 M, pH 7.4), reference power ITC 10 μcal/s, stirring speed 750 rpm, cell temperature 25 °C, 1 injection of 0.4 μL and 18 injections of 2 μL CMP, 120 s spacing.*
OMPDC with 2′-deoxy UMP: 211 μM OMPDC, 9.04 mM 2′-deoxy UMP, buffer (HEPES 0.02 M, pH 7.4), reference power ITC 10 μcal/s, stirring speed 750 rpm, cell temperature 25 °C, 1 injection of 0.4 μL and 18 injections of 2 μL 2′-deoxy UMP, 120 s spacing.
OMPDC with GMP: 184 μM OMPDC, 10 mM GMP, buffer (HEPES 0.02 M, pH 7.4), reference power ITC 8 μcal/s, stirring speed 750 rpm, cell temperature 25 °C, 1 injection of 0.4 μL and 18 injections of 2 μL GMP, 120 s spacing.
(§3) The raw files were analyzed using the software provided by the instrument manufacturer. Marked data sets (*) were integrated using NitPic version 1.2.7 and fitted with Sedphat version 14.0. Final graphs were created with OriginPro 2020.

OMPDC Thr321Asn [5] = target: T2, OMPDC Thr321Asn; assay: Thermodynamic ITC ligand binding to OMPDC variant Thr321Asn
Protocol: as §1
OMPDC T321N′ with dTMP: 211 μM OMPDC T321N′, 2 mM dTMP, buffer (HEPES 0.02 M, pH 7.4), reference power ITC 10 μcal/s, stirring speed 750 rpm, cell temperature 25 °C, 1 injection of 0.4 μL and 18 injections of 2 μL dTMP, 120 s spacing.
as §3

[6] = ITC at 25 °C, 20 mM HEPES pH 7.4, wild-type, single dissociation constant, read-out: K D
[7] = ITC at 25 °C, wild-type, first of two dissociation constants (Sedphat analysis), read-out: K D1
[8] = ITC at 25 °C, wild-type, second of two dissociation constants (Sedphat analysis), read-out: K D2

Compound: Cc1c(C(=O)O)n(C2OC(COP(=O)(O)O)C(O)C2O)c(=O)[nH]c1=O (centres unmarked) [5-MeOMP, 5-methyl OMP]
enzymatic turnover (human OMPDC [2]): unable to detect enzymatic turnover | Kd (human OMPDC [4]; [6]): 404 nM and 400 nM | n (stoichiometry) (human OMPDC [4]; ITC at 25 °C, wild-type): 1.54 ± 0.01 | ΔG (human OMPDC [4]; ITC at 25 °C, wild-type): –8.78 ± 0.19 kcal/mol | ΔH (human OMPDC [4]; ITC at 25 °C, wild-type): –1.20 ± 0.03 kcal/mol | –TΔS (human OMPDC [4]; ITC at 25 °C, wild-type): –7.58 ± 0.26 kcal/mol

Compound: Nc1nc2c(ncn2[C@@H]2O[C@H](COP(=O)(O)O)[C@@H](O)[C@H]2O)c(=O)[nH]1 [GMP, guanosine-5′-monophosphate]
ligand bound in crystal structure (human OMPDC [1]): no ligand was bound to the active site | binding detected by thermodynamic ITC (human OMPDC [4]; wild-type): No binding could be detected; also recorded: no measurable binding heat was detected; also recorded: did not bind at all

Compound: O=c1ccn([C@@H]2O[C@H](COP(=O)(O)O)[C@@H](O)[C@H]2O)c(=O)[nH]1 [UMP, uridine 5′-monophosphate]
n (stoichiometry) (human OMPDC [4]; ITC at 25 °C, wild-type): 0.98 ± 0.01 | ΔH (first binding phase, K D1) (human OMPDC [4]; ITC at 25 °C, wild-type): –1.03 ± 0.06 kcal/mol | ΔH (second binding phase, K D2) (human OMPDC [4]; ITC at 25 °C, wild-type): –2.1 ± 0.1 kcal/mol | Kd (human OMPDC [4]; [7]): 2600 ± 1200 nM | Kd (human OMPDC [4]; [8]): 6700 ± 800 nM | Kd (human OMPDC [4]; ITC, wild-type, second of two dissociation constants, read-out: Dissociation constant KD2): 6730 nM

Compound: O=c1[nH]c(=O)c2ncn([C@@H]3O[C@H](COP(=O)(O)O)[C@@H](O)[C@H]3O)c2[nH]1 [XMP, xanthosine-5′-monophosphate]
ΔH (first binding phase, K D1) (human OMPDC [4]; ITC at 25 °C, wild-type): –1.86 ± 0.10 kcal/mol | ΔH (second binding phase, K D2) (human OMPDC [4]; ITC at 25 °C, wild-type): –5.57 ± 0.07 kcal/mol | Kd (human OMPDC [4]; [7]): 210 ± 30 nM | Kd (human OMPDC [4]; [8]): 180 ± 20 nM | Kd (human OMPDC [4]; ITC, wild-type, first of two dissociation constants, read-out: Dissociation constant KD1): 213 nM | Kd (human OMPDC [4]; ITC, wild-type, second of two dissociation constants, read-out: K D2): 182 ± 18 nM

Compound: Cc1cn([C@H]2C[C@H](O)[C@@H](COP(=O)(O)O)O2)c(=O)[nH]c1=O [dTMP, thymidine-5′-monophosphate]
Kd (OMPDC Thr321Asn [5]; ITC): 431 ± 44 nM | Kd (OMPDC Thr321Asn [5]; ITC at 25 °C): 430 ± 40 nM | n (stoichiometry) (OMPDC Thr321Asn [5]; ITC at 25 °C): 0.64 ± 0.02 | ΔG (OMPDC Thr321Asn [5]; ITC at 25 °C): –8.69 ± 0.08 kcal/mol | ΔH (OMPDC Thr321Asn [5]; ITC at 25 °C): –14.3 ± 0.1 kcal/mol | –TΔS (OMPDC Thr321Asn [5]; ITC at 25 °C): 5.60 ± 0.06 kcal/mol | Kd (human OMPDC [4]; [6]): 119000 nM | n (stoichiometry) (human OMPDC [4]; ITC at 25 °C, wild-type): 0.64 ± 0.03 | ΔG (human OMPDC [4]; ITC at 25 °C, wild-type): –5.37 ± 0.09 kcal/mol | ΔH (human OMPDC [4]; ITC at 25 °C, wild-type): –4.74 ± 0.29 kcal/mol | –TΔS (human OMPDC [4]; ITC at 25 °C, wild-type): –0.63 ± 0.88 kcal/mol | Kd (human OMPDC [4]; ITC at 25 °C, wild-type, single dissociation constant, read-out: Dissociation constant (KD)): 118000 nM

Continued, in another order:

ligand bound in crystal structure (human OMPDC [1]): does not bind | enzymatic turnover (human OMPDC [2]): no binding or turnover was detected
Compound: O=C(O)c1cc(=O)[nH]c(=O)n1[C@H]1C[C@H](O)[C@@H](COP(=O)(O)O)O1 [2′-deoxy OMP]
enzymatic activity (OMPDC Thr321Asn [3]): too low to be reliably measured

binding detected by thermodynamic ITC (human OMPDC [4]; wild-type): no binding | binding detected by thermodynamic ITC (human OMPDC [4]; wild-type, listed as deoxy UMP): No binding could be detected
Compound: O=c1ccn([C@H]2C[C@H](O)[C@@H](COP(=O)(O)O)O2)c(=O)[nH]1 [2′-deoxy UMP, 2′-deoxy uridine 5′-monophosphate]

ΔH (first binding phase, K D1) (human OMPDC [4]; ITC at 25 °C, wild-type): –2.30 ± 0.08 kcal/mol | ΔH (second binding phase, K D2) (human OMPDC [4]; ITC at 25 °C, wild-type): –7.08 ± 0.56 kcal/mol | Kd (human OMPDC [4]; [7]): 4730 ± 1090 nM | Kd (human OMPDC [4]; [8]): 8330 ± 1060 nM
Compound: Nc1ccn([C@@H]2O[C@H](COP(=O)(O)O)[C@@H](O)[C@H]2O)c(=O)n1 [CMP, cytidine-5′-monophosphate]
